According to publication PMC10803253, “Structural insights into the iron nitrogenase complex” (Nature Structural & Molecular Biology, 2023):

Assays:
[1] = molecular target: T1, Fe nitrogenase reductase component AnfH2 in the Anf(DGK)2(H2)2 complex (Rhodobacter capsulatus, UniProt D5ANJ6); assay: cryo-EM structure ([…] Å); assay type: binding; settings: covalent (Cys97 and Cys132 of two AnfH subunits); co-purified
T1 construct: gene anfH; N-terminal His6-tag on AnfH, C-terminal Strep-tag II on AnfD, no linkers; plasmid expression in R. capsulatus MM0436; AlF3-trapped Anf(DGK)2(H2)2, ~360 kDa by mass photometry; with Nitrogenase iron-iron protein alpha chain; Nitrogenase iron-iron protein beta chain; Nitrogenase iron-iron protein delta chain
T1 sequence (D5ANJ6 1-275): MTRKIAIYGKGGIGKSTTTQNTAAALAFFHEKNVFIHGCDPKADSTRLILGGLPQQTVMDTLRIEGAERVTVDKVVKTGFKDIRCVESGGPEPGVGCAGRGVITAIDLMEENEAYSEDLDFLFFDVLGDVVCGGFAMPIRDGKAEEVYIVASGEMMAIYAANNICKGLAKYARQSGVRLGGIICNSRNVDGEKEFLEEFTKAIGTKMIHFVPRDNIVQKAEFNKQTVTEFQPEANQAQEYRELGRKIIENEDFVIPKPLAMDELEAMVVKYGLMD
T1 sequence (D5ANJ7 1-527 partner): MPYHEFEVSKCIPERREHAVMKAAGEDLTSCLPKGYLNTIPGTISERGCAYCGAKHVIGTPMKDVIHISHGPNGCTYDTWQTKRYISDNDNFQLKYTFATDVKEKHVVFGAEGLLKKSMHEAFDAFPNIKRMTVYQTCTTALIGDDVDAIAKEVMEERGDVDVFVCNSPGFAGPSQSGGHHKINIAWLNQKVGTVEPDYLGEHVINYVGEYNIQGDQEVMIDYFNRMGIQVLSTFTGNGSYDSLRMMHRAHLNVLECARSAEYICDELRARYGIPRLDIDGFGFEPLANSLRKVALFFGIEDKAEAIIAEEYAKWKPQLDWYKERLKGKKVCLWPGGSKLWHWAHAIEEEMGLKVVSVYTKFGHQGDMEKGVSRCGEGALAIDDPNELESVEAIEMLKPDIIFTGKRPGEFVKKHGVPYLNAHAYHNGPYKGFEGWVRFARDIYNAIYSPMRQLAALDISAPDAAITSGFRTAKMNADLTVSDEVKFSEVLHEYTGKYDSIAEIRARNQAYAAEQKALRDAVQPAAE
T1 sequence (D5ANJ9 1-460 partner): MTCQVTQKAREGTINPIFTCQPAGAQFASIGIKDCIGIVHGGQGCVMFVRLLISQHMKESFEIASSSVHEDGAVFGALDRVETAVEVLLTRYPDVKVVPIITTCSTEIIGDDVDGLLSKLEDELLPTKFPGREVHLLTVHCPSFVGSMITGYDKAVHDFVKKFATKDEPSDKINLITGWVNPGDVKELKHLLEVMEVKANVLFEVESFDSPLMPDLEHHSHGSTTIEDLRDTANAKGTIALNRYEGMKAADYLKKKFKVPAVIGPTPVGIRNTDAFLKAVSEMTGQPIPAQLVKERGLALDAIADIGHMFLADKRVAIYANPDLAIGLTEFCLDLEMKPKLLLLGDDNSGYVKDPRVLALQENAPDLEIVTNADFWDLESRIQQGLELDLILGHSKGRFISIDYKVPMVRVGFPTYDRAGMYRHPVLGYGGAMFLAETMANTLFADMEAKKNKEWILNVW
T1 sequence (D5ANJ8 1-115 partner): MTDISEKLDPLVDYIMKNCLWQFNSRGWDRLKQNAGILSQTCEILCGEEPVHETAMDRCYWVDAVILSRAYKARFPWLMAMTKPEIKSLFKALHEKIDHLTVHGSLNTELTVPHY

[2] = molecular target: T2, Fe nitrogenase catalytic component, AnfD FeFeco site, in the Anf(DGK)2(H2)2 complex (Rhodobacter capsulatus, UniProt D5ANJ7); assay: cryo-EM structure ([…] Å); assay type: binding; settings: bidentate ligand of FeFeco iron Fe8 via 2-hydroxyl and 2-carboxyl; co-purified; ADP·AlF3-trapped complex
T2 construct: C-terminal Strep-tag II on AnfD, N-terminal His6-tag on AnfH, no linkers; plasmid expression in R. capsulatus MM0436; AlF3-trapped Anf(DGK)2(H2)2; with Nitrogenase iron-iron protein beta chain; Nitrogenase iron-iron protein delta chain; Nitrogenase iron protein (iron-iron nitrogenase reductase)
T2 sequence (D5ANJ9 entry or part of it): as the sequence (D5ANJ9 1-460 partner) above
T2 sequence (D5ANJ6 entry or part of it, further chain): as the sequence (D5ANJ6 1-275) above
T2 sequence (D5ANJ7 entry or part of it): as the sequence (D5ANJ7 1-527 partner) above
T2 sequence (D5ANJ8 entry or part of it, further chain): as the sequence (D5ANJ8 1-115 partner) above

Row | Compound | cryo-EM structure (2.35 Å) [1] | cryo-EM structure (2.35 Å) [2]
1 | [S]12[Fe]3[S]4[Fe]1[S]1[Fe]2[S]3[Fe]41 [[Fe4S4] cluster] | we observed an [Fe4S4] cluster coordinated by Cys97 and Cys132 | 
2 | O=C(O)CC[C@@](O)(CC(=O)O)C(=O)O [(R)-homocitrate] |  | additionally coordinated by a bidentate (R)-homocitrate ligand that binds the iron atom
